Reference: PubChem BioAssay AID463206 (Broad Institute, 2010)
The source made the active and inactive calls.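 The calls were made as follows: active = caspase luminescence falls with dose and the half-maximal concentration AC50 from the fitted curve is at or below a set limit; inconclusive = flat fit at 30 to 70% signal loss, or invalid fit; inactive = AC50 above the limit, or signal rises instead.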

What follows are compounds tested on INS-1E cytokine-induced caspase-3/7, Caspase-Glo luminescence, 48 h (assay: suppression of cytokine-driven beta-cell apoptosis – INS-1E rat cells, luminescence, orthogonal assay for beta-cell apoptosis protection project, dose response (AID 463206)).
For Cc1ccc(C)n1-c1ccc(C(=O)Nc2ccccc2)cc1, the AC50 was > 26 µM (inactive). With COc1ccc2cc3[n+](cc2c1OC)CCc1cc2c(cc1-3)OCO2 the AC50 was > 26 µM (inactive). With Cc1cccc(NC(=S)N/N=C/c2ccc([N+](=O)[O-])s2)c1 the AC50 was > 26 µM (inactive). With Cc1ccc(Nc2c(-c3ccccn3)nc3cccc(C)n23)cc1 the AC50 was > 26 µM (inactive). In the case of Cc1ccc(C(C)C)c(OCc2nn(CC(=O)c3ccc(Cl)cc3)c3[n+]2CCCCC3)c1, the AC50 is reported as > 26 µM (inactive). CC1CCN(C(=O)CCNS(=O)(=O)c2ccc(Br)cc2)CC1 was tested, and the AC50 was > 26 µM (inactive). In the case of N#Cc1ccc(C(=O)Nc2nc(-c3cccs3)c(C(=O)C(F)(F)F)s2)cc1, the AC50 is reported as > 26 µM (inactive). With COc1cc(C(=O)Oc2ccccc2/C=N/NC(=O)c2ccc(C)c(Cl)c2)cc(OC)c1OC the AC50 was > 26 µM (inactive). With O=C(Oc1c(CN2CCOCC2)cc(Cl)c2cccnc12)c1ccc(F)cc1 the AC50 was > 26 µM (inactive). With O=C(N/N=C/c1cc(Cl)ccc1O)c1ccccc1Br the AC50 was > 26 µM (inactive). For O=C(/C=C/c1ccccc1)NC(=S)NNC(=O)c1cnccn1, the AC50 was > 26 µM (inactive). For CNC(=O)c1sc(N2N=C3/C(=C/c4ccccc4)CCCC3C2c2ccccc2)nc1C (stereo unspecified), the AC50 was > 26 µM (inactive). In the case of CCCC1CCC(c2ccc(C(=O)NN)cc2)CC1 (stereo unspecified), the AC50 is reported as > 12 µM (inactive). O=C(Nc1nc2ccc(F)cc2s1)C1CCN(S(=O)(=O)c2cc([N+](=O)[O-])ccc2Cl)CC1 was tested, and the AC50 was > 26 µM (inactive). For O=c1c(Cl)c(Cl)cnn1Cc1ccc(F)cc1, the AC50 was > 26 µM (inactive). With COc1ccc(C(=O)Nc2ccccc2C(=O)N/N=C/c2ccccn2)cc1OC the AC50 was > 26 µM (inactive). In the case of CCN1/C(=C/C=C/c2oc3ccc(-c4ccccc4)cc3[n+]2CC)Oc2ccc(-c3ccccc3)cc21, the AC50 is reported as > 26 µM (inactive). For O=C(c1ccc(-c2ccc(Cl)cc2)o1)N1CCN(c2ccc([N+](=O)[O-])cc2Cl)CC1, the AC50 was > 26 µM (inactive). In the case of Cc1ccc(S(=O)(=O)N2CCCCC2c2cccnc2)c(C)c1C (stereo unspecified), the AC50 is reported as > 26 µM (inactive). In the case of CC1=C(C#N)C(C(F)(F)F)(C(F)(F)F)N=C(c2ccco2)N1, the AC50 is reported as > 26 µM (inactive). CC1=C(CO)C(=O)OC([C@@H](C)C2CC[C@H]3C4C[C@H]5O[C@]56[C@@H](O)C=CC(=O)[C@]6(C)C4CC[C@]23C)C1 (stereo partly specified) was tested, and the AC50 was > 26 µM (inactive). In the case of CC#CC[N+](C)(C)CCCCCCCCCCCC, the AC50 is reported as > 26 µM (inactive). Cc1[nH]n(-c2ccc(Br)cc2)c(=O)c1/C=N/NC(=O)c1ccccc1 was tested, and the AC50 was > 26 µM (inactive). In the case of O=C(N/N=C\c1cc(Cl)ccc1O)c1ccc(S(=O)(=O)N2CCCCC2)cc1, the AC50 is reported as > 26 µM (inactive). O=C1C(=O)c2ccc(-c3ccccc3)cc2-c2ccccc21 was tested, and the AC50 was > 26 µM (inactive). With O=C(c1cnc(N2CCN(c3ccccn3)CC2)c2ccccc12)N1CCN(c2cccc(Cl)c2)CC1 the AC50 was > 26 µM (inactive). For c1nc(NCc2ccc3c(c2)OCO3)c2cc(-c3ccc4c(c3)OCCO4)ccc2n1, the AC50 was > 26 µM (inactive). In the case of Nc1nc(Cl)cc(N2CCC(c3cc(-c4ccc(Cl)cc4)n[nH]3)CC2)n1, the AC50 is reported as > 26 µM (inactive). With COc1ccc(/C=C/c2nc3ccccc3n2C)cc1 the AC50 was > 26 µM (inactive). For CCCC(=O)NC(c1ccccc1)c1ccc2cccnc2c1O (stereo unspecified), the AC50 was > 26 µM (inactive). For CCC(=O)NC(c1ccc(Cl)cc1Cl)c1ccc2cccnc2c1O (stereo unspecified), the AC50 was > 12 µM (inactive). With COc1ccc2c(c1)C(=O)[C@@H](O)[C@H](c1ccc(OC)c(Br)c1)O2 the AC50 was > 26 µM (inactive). For C=CC[n+]1c(-c2ccc(OCC)cc2)csc1NNC(=O)Nc1ccccc1, the AC50 was > 26 µM (inactive). With CCCCCc1ccc(OCCCC[n+]2ccccc2)c(CCCCC)c1 the AC50 was > 26 µM (inactive). For C/C(=N\NC(=O)c1ccc(NS(=O)(=O)c2cccs2)cc1)c1ccccn1, the AC50 was > 12 µM (inactive). In the case of Nc1nc(N)c2cc(Sc3ccc4ccccc4c3)ccc2n1, the AC50 is reported as > 26 µM (inactive). In the case of CCC(C)c1ccc(NC(=S)NC2CCN(Cc3ccccc3)CC2)cc1 (stereo unspecified), the AC50 is reported as > 26 µM (inactive). For Cc1csc2nc(NC(=O)c3ccccc3)sc(=O)c12, the AC50 was > 26 µM (inactive). CCCCC(CC)CN=C(N)NC(N)=NCCCCCCN=C(N)NC(N)=NCC(CC)CCCC (stereo unspecified) was tested, and the AC50 was > 26 µM (inactive). N#CC(C#N)=C1C=CC=CN1/C(=C\c1ccco1)C(=O)c1ccc(Br)cc1 was tested, and the AC50 was > 26 µM (inactive). For Cc1cc(C)nc(N/N=C2/CCCC/C2=C\c2ccccc2)n1, the AC50 was > 26 µM (inactive). For O=C(N/N=C/c1ccccc1)c1c(O)c2ccccc2[nH]c1=O, the AC50 was > 26 µM (inactive). With O=[N+]([O-])c1ccc(Sc2cccc3cccnc23)c([N+](=O)[O-])c1 the AC50 was > 26 µM (inactive). In the case of C/C(=N\Nc1nc2ccccc2[nH]1)c1ccccn1, the AC50 is reported as > 26 µM (inactive). COc1ccc(NC(=O)/C(Cl)=C(/Cl)S(=O)Cc2ccc(C)cc2)cn1 (stereo unspecified) was tested, and the AC50 was > 26 µM (inactive). CCOC(=O)C(=Cc1ccc(Br)cc1)C(=O)OCC was tested, and the AC50 was > 26 µM (inactive). For CC1=[N+](C)c2ccc3ccccc3c2C1(C)C, the AC50 was > 26 µM (inactive). With Cc1ccc(C(=O)OCn2ncc(Cl)c(Cl)c2=O)cc1 the AC50 was > 26 µM (inactive). In the case of COc1cc(N/N=C/c2ccccc2O)ncn1, the AC50 is reported as > 26 µM (inactive). For COc1cc(-c2nc3ccc(C)cn3c2NCc2ccccc2)ccc1-c1cccc(Cl)c1, the AC50 was > 26 µM (inactive). With CCCCC(=O)NC(c1ccccc1OC)c1ccc2cccnc2c1O (stereo unspecified) the AC50 was > 26 µM (inactive). With Cc1ccc2nc(/C(C#N)=C\c3ccc([N+](=O)[O-])o3)[nH]c2c1 the AC50 was > 26 µM (inactive). For CCOC(=O)COc1ccc2ccccc2c1/C=C/[N+](=O)[O-], the AC50 was > 26 µM (inactive). For COc1ccc([C@H]2CC(=O)C=C(c3ccnc4ccc(Cl)cc34)C2)cc1, the AC50 was > 26 µM (inactive). With CCCCCCCCCCCCCCCC[N+](C)(C)CCN(Cc1ccc(OC)cc1)c1ncccn1 the AC50 was > 26 µM (inactive). For O=C1C(Cl)=C(NCc2cccnc2)C(=O)c2ccccc21, the AC50 was > 26 µM (inactive). For CC(C)(C)c1ccc(NNC(=O)C2CCC2)cc1, the AC50 was > 26 µM (inactive). In the case of CCC(CO)Oc1cc(NCc2ccc(C(C)(C)C)cc2)c2ncn(C(C)C)c2c1 (stereo unspecified), the AC50 is reported as > 26 µM (inactive). Cc1[nH]n(-c2ccccc2)c(=O)c1/C=N\NC(=O)C1COc2ccccc2O1 (stereo unspecified) was tested, and the AC50 was > 26 µM (inactive). With Cc1ccc2c(c1)S/C(=C/c1ccc[n+](C)c1)N2CCO the AC50 was > 26 µM (inactive). For O=C(Nc1nc(-c2ccccn2)cs1)c1cccc(-n2cnnn2)c1, the AC50 was > 26 µM (inactive). CCOC(=O)c1cnc(-n2nc(C)cc2C)nc1NNc1cc(C)nc(-c2ccccc2)n1 was tested, and the AC50 was > 26 µM (inactive). In the case of Oc1cccc(C(Nc2nccs2)c2ccc3cccnc3c2O)c1 (stereo unspecified), the AC50 is reported as > 26 µM (inactive). With NC(=S)N/N=C/c1ccccc1O the AC50 was > 26 µM (inactive). In the case of Cc1cc(/C=N/n2c(COc3ccccc3C)nc3ccccc3c2=O)c(O)c([N+](=O)[O-])c1, the AC50 is reported as > 26 µM (inactive). Cc1ccccc1NC(=O)/C=C/c1ccc([N+](=O)[O-])s1 was tested, and the AC50 was > 26 µM (inactive). In the case of CCOC(=O)c1cccc(-[n+]2c(-c3ccccc3)cc(-c3ccccc3)cc2-c2ccccc2)c1, the AC50 is reported as > 26 µM (inactive). With CC1C/C(=C/c2ccncc2)C(=O)/C(=C/c2ccncc2)C1 (stereo unspecified) the AC50 was > 26 µM (inactive). Cc1ccc(-n2ncc3c2CCCC3NC(=O)c2ocnc2C)cc1C (stereo unspecified) was tested, and the AC50 was > 26 µM (inactive). In the case of COC(=O)c1ccccc1NC(=O)c1nc(S(=O)(=O)Cc2ccccc2)ncc1Cl, the AC50 is reported as > 26 µM (inactive). In the case of COc1cnc(-c2ccccn2)nc1Oc1ccc(C(C)(C)C)cc1, the AC50 is reported as > 26 µM (inactive). In the case of CCN(CC)S(=O)(=O)c1ccc(Oc2ccc(S(=O)(=O)N(CC)CC)cc2)cc1, the AC50 is reported as > 26 µM (inactive). For CCN1/C(=C/c2cccc[n+]2C)Sc2ccc(OC)cc21, the AC50 was > 26 µM (inactive). CC(C)(C)c1cc(NCCCn2ccnc2)n2ncc(-c3ccccc3)c2n1 was tested, and the AC50 was > 26 µM (inactive). For Cc1sc2ncnc(N3CCN(CCOc4ccc(Cl)cc4)CC3)c2c1C, the AC50 was > 26 µM (inactive). In the case of N#CCSc1nc2ccccc2c2nc3ccccc3n12, the AC50 is reported as > 26 µM (inactive). CC1CC(C)CN(S(=O)(=O)c2ccc(C(=O)NCCCn3ccnc3)cc2)C1 (stereo unspecified) was tested, and the AC50 was > 26 µM (inactive). In the case of O=C(Oc1c(CN2CCOCC2)cc(Cl)c2cccnc12)c1cccs1, the AC50 is reported as > 26 µM (inactive). In the case of O=C(Nc1cccc(C(F)(F)F)c1)Oc1ccc(Cl)c2cccnc12, the AC50 is reported as > 26 µM (inactive). In the case of Cn1nccc1C(=O)NC1CCCc2c1cnn2-c1ccc(C(C)(C)C)cc1 (stereo unspecified), the AC50 is reported as > 26 µM (inactive). In the case of CCOC(=O)c1c(NC(=O)c2cc(-c3ccc(Cl)s3)nc3ccccc23)sc(C(N)=O)c1C, the AC50 is reported as > 26 µM (inactive). In the case of CC1(C)CC(=O)C2=C(C1)OC1=C(C(=O)CC(C)(C)C1)C2c1ccc(O)cc1O, the AC50 is reported as > 26 µM (inactive). For Cc1oc2c(c1C(=O)c1ccccc1)C(=O)C(=O)c1ccccc1-2, the AC50 was > 26 µM (inactive). With COc1ccccc1NS(=O)(=O)c1cccc(NC(=O)c2[nH]c(C)c(C(C)=O)c2C)c1 the AC50 was > 26 µM (inactive). With COc1cccc(C(=O)N/N=C(/c2ccccc2)c2ccccn2)c1 the AC50 was > 26 µM (inactive). COc1cc(/C=N/NC(=O)c2cccnc2)ccc1OC(=O)c1cc(OC)c(OC)c(OC)c1 was tested, and the AC50 was > 26 µM (inactive). COc1cccc(/C=N/NC(=O)c2c(-c3ccccc3)noc2C)c1O was tested, and the AC50 was > 26 µM (inactive). With O=C(N/N=C/c1ccc(O)c2ncccc12)c1cccc(Br)c1 the AC50 was > 26 µM (inactive). In the case of O=C1C(Cl)=C(NCCN2CCCCC2)C(=O)c2ccccc21, the AC50 is reported as > 26 µM (inactive). CC1CCCCC1NS(=O)(=O)c1ccc(S(=O)(=O)NCc2ccncc2)cc1 (stereo unspecified) was tested, and the AC50 was > 26 µM (inactive). In the case of c1ccc(C(c2ccccc2)N2CCN(c3nc4ccccc4n4cnnc34)CC2)cc1, the AC50 is reported as > 26 µM (inactive). In the case of CC(C)n1cnc2c(NCc3ccccc3)cc(N[C@H](C)CO)cc21, the AC50 is reported as > 26 µM (inactive). For Cc1ccc2[nH]c(=O)c(C3C(C#N)=C(N)Oc4c3ccc3cccnc43)cc2c1 (stereo unspecified), the AC50 was > 26 µM (inactive). In the case of COc1ccc(OC)c2[nH]c(C(=O)N/N=C/c3ccccc3O)cc12, the AC50 is reported as > 26 µM (inactive). In the case of CCCCC[n+]1ccn(C2=C([O-])c3ccccc3C(=O)/C2=N\S(=O)(=O)c2ccc(Cl)cc2)c1, the AC50 is reported as > 26 µM (inactive). For O=[N+]([O-])c1cc(CN2CCN(c3ccccc3)CC2)c(O)c2ncccc12, the AC50 was > 26 µM (inactive).
